Laboratory results reported in patent US8057829B2, “Methods for repelling insects using sesquiterpene hydrocarbons and their derivatives” (Sterling International Inc., priority 2008, dated 2011).

How the values were obtained:
[1] = system: Ae. aegypti and An. stephensi; experiment: K&D module bioassay, statements pooled for both mosquito species; type: in vivo, Aedes aegypti; Anopheles stephensi; settings: DEET at 10 μg/cm^2, oxide and ketone at similar or lower dosages as DEET, oils at about 10 mg/d release
Protocol: (§1) The bioassays were conducted with a six-cell in vitro K&D module system, as disclosed in Klun and Debboun, J. Med. Entomol. 37:177-181 (2000), loaded with an “artificial blood” (CPDA+ATP) solution.
Clove essential oil, patchouli oil, and EAD-active potential repellents, β-caryophyllene, isocaryophyllene, (+)-longifolene, and their 1:1:1 mixture, plus α-guaiene, caryophyllene oxide, and a β-caryophyllene ketone, were tested using the six-cell in vitro K&D module system (Klun and Debboun, J. Med. Entomol. 37:177-181 (2000)) loaded with an “artificial blood” (CPDA+ATP) solution on both Ae. aegypti and An. stephensi in a dose-response fashion. The K&D in vitro assay system has three components: (1) a Plexiglas™ 29.7 cm.×7.1 cm K&D module composed of six adjacent cells, each designed to hold mosquitoes and each having a rectangular 3×4 cm floor hole that is opened and closed by a sliding door; (2) a Plexiglas™ six-well 29.7 cm×7.1 cm water water-bath warmed (38° C.) reservoir with six 3×4 cm wells designed to match the sliding-door openings of the K&D module base and to contain 6 mL warmed “artificial blood” wells covered with a collagen membrane; and (3) a 29.7 cm×7.1 cm'0.4 cm Teflon® separator having six rectangular openings like the K&D module. The K&D module was connected to a constant temperature water circulator at 38° C. The cells were covered with an Edicol collagen membrane strip. Nylon organdy strips with ink cell patterns were numbered and randomly treated with five dilutions of the tested chemical in ethanol (ethanol alone as blank control), plus DEET (ca. 10 μg/cm^2) as a positive control. This treated nylon organdy strip was placed on top of the collagen membrane. The upper section of the K & D module with the six cells each containing 5 mosquitoes (5-10 d old, starved for 24 hr before testing) was placed on top of the nylon strip. […] The experiments were allowed to run for 3 minutes, and the number of mosquitoes feeding (biting) in each cell was recorded. […]

[2] = system: female antennae of sand fly Phlebotomus papatasi and mosquitoes Aedes aegypti, Anopheles gambiae, Anopheles stephensi; experiment: GC-EAD responses of sand fly and three mosquitoes to synthetic mixtures; settings: about 100 ng of each compound, on one or more of the sand fly or the mosquitoes, FIGS. 9 and 10
How it was run: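 Female antennae recorded by GC-EAD (split with FID) against synthetic mixtures with about 100 ng of each compound, 1-octen-3-ol as positive control; polar Innowax column, 50° C 2 min then 10° C/min to 240° C. Effluent in humidified air at 0.5 liter/min over severed-head preparation with Ringer-filled electrodes.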

Aedes aegypti [3] = experiment: K&D module behavioral bioassay (topical repellency, biting); type: in vivo
Protocol: as §1
(§2) Clove essential oil, patchouli oil, and EAD-active potential repellents, β-caryophyllene, isocaryophyllene, (+)-longifolene, and their 1:1:1 mixture, plus α-guaiene, caryophyllene oxide, and a β-caryophyllene ketone, were tested using the six-cell in vitro K&D module system (Klun and Debboun, J. Med. Entomol. 37:177-181 (2000)) loaded with an “artificial blood” (CPDA+ATP) solution on both Ae. aegypti and An. stephensi in a dose-response fashion. The K&D in vitro assay system has three components: (1) a Plexiglas™ 29.7 cm.×7.1 cm K&D module composed of six adjacent cells, each designed to hold mosquitoes and each having a rectangular 3×4 cm floor hole that is opened and closed by a sliding door; (2) a Plexiglas™ six-well 29.7 cm×7.1 cm water water-bath warmed (38° C.) reservoir with six 3×4 cm wells designed to match the sliding-door openings of the K&D module base and to contain 6 mL warmed “artificial blood” wells covered with a collagen membrane; and (3) a 29.7 cm×7.1 cm'0.4 cm Teflon® separator having six rectangular openings like the K&D module. The K&D module was connected to a constant temperature water circulator at 38° C. The cells were covered with an Edicol collagen membrane strip. Nylon organdy strips with ink cell patterns were numbered and randomly treated with […] of the tested chemical in ethanol (ethanol alone as blank control), plus DEET (ca. 10 μg/cm^2) as a positive control. This treated nylon organdy strip was placed on top of the collagen membrane. The upper section of the K & D module with the six cells each containing 5 mosquitoes (5-10 d old, starved for 24 hr before testing) was placed on top of the nylon strip. The doors to the cells were slid open so the mosquitoes could be free to feed on the “artificial blood” via the collagen membrane if they were hungry. The experiments were allowed to run for 3 minutes, and the number of mosquitoes feeding (biting) in each cell was recorded. After each experiment, the nylon and collagen strips were removed. The CPDA+ATP solution was removed and allowed to dry prior to starting the next experiment. The experiments on each chemical and each mosquito species were run three times before the bottom section with circulated water was cleaned prior to use again.

Anopheles stephensi [4] = experiment: as above; type: in vivo
Protocol: as §1, §2

Aedes aegypti [5] = experiment: Y-tube olfactometer behavioral bioassay (spatial repellency); type: in vivo; settings: for Number of mosquitoes in each arm: Blank / Number of mosquitoes in each arm: Bottom / Number of mosquitoes in each arm: Repellent: Aedes aegypti females, release rate per chemical (1-60 mg/day), 10 min; for Number of mosquitoes in each arm: Repellent: two replicates pooled; for SAI (Spatial Activity Index): Aedes aegypti, (Nc − Nt)/(Nc + Nt), −1 to 1, zero indicating no response
Protocol: (§3) Aegypti and An. stephensi, and one species of sand fly, P. papatasi. Both the mosquitoes and the sand flies used in the study were from colonies maintained at the Walter Reed Army Institute of Research, Department of Entomology, Silver Spring, Md. This Y-tube bioassay system, equipped with CO2-enriched air (ca. 1 l/min) as an attractant, was made from three clear acrylic tubes (4″ diameter; 12″ length) with symmetrical 120° angles among the three tube arms; and a screen butterfly valve on the top part of the bottom releasing tube. These spatial repellency tests were carried out during 8:00 am-12:00 pm (photophase) time period for Ae. aegypti and 1:00-5:00 pm (shifted scotophase) time period for the species of night-flying mosquitoes and sand fly in a temperature and humidity controlled testing room (23-25° C. and 20-40% RH). Female mosquitoes or sand flies were stored at ˜25-26° C., 50-89% RH, 12:12 hr. (L/D), fed with 10% sucrose solution before testing. The candidate chemical (individual or mixture) dispenser and a blank control were placed in the upper left or right arm of the Y-tube before releasing 25-40, 6 to 10 day-old female mosquitoes (or 3 to 10 day-old sand flies) into the bottom tube via a small hole. After a 30-60 sec acclimation period, the butterfly screen valve (door) on the top of the bottom tube was opened. After 10 min., the valve was closed and the numbers of mosquitoes or sand flies in each arm (including the bottom tube) were counted. In order to minimize the position effect, the same experiment was repeated once with the treatment and blank control arms shifted using a new (clean) Y-tube olfactometer and a new batch of mosquitoes/sand flies. Data from these two replicates were pooled for χ2 goodness of fit test (df=1) between the treatment and blank control.

Anopheles stephensi [6] = experiment: as above; type: in vivo; settings: for Number of mosquitoes in each arm: Repellent / Number of mosquitoes in each arm: Blank / Number of mosquitoes in each arm: Bottom: Anopheles stephensi females, 10 min; for Number of mosquitoes in each arm: Repellent: release rate per chemical (1-60 mg/day; β-Caryophyllene 10 mg/day); for Number of mosquitoes in each arm: Blank / Number of mosquitoes in each arm: Bottom: release rate per chemical (β-Caryophyllene 10 mg/day); for SAI (Spatial Activity Index): Anopheles stephensi, β-Caryophyllene 10 mg/day
Protocol: as §3

Phlebotomus papatasi = experiment: as above; type: in vivo; settings: for SAI (Spatial Activity Index): Phlebotomus papatasi; for Number of mosquitoes in each arm: Repellent: Phlebotomus papatasi (sand fly) females, release rate per chemical (1-35 mg/day); for Number of mosquitoes in each arm: Repellent / Number of mosquitoes in each arm: Blank / Number of mosquitoes in each arm: Bottom: 10 min; for Number of mosquitoes in each arm: Blank / Number of mosquitoes in each arm: Bottom: Phlebotomus papatasi females, release rate per chemical
Protocol: as §3

[7] = system: male false stable fly Muscina stabulans antenna and female mosquito Aedes (Ochlerotatus) increpitus Dyar antenna; experiment: GC-EAD responses of false stable fly and Aedes increpitus to a synthetic mixture; settings: about 100 ng of each compound, FIG. 5
Protocol: The GC-EAD responses of the male false stable fly Muscina stabulans antenna and the female mosquito Aedes (Ochlerotatus) increpitus Dyar antenna were tested on a synthetic mixture of linalool and two representative sesquiterpene hydrocarbons, β-caryophyllene and α-humulene, and one sesquiterpene oxide, β-caryophyllene oxide, with about 100 ng of each compound in the mixture.
The following procedures were employed to test the EAD response of an insect antenna to a repellent compound. The GC-EAD technique provides an efficient tool for screening behaviorally active repellents. Several synthetic mixtures of potential insect repellent candidates, mostly sesquiterpene hydrocarbons and derivatives, were analyzed in splitless mode using a Varian CP-3800 GC equipped with a polar column (Innowax; 1.0 μm film thickness, 30 m×0.53 mm ID; J & W Scientific), and a 1:1 effluent splitter that allowed simultaneous flame ionization detection (FID) and EAD of the separated volatile compounds. Helium was used as the carrier gas, and the injector temperature was 220° C. The column temperature was 50° C. for 2 min, rising to 240° C. at 10° C./min, then held for 10 min. The outlet for the EAD was held in a humidified air stream flowing at 0.5 liter/min. over an antennal preparation. A glass capillary indifferent electrode filled with Beadle-Ephrussi Ringer, and grounded via a silver wire, was inserted into the severed insect's head with the antennae. A similar recording electrode connected to a high-impedance DC amplifier with automatic baseline drift compensation was placed in contact with the distal end of one antenna (Zhang et al., Chemoecology, 10:69-80 (2000)). The antennal signals were stored and analyzed on a PC equipped with a serial IDAC interface box and the program EAD ver. 2.5 (Syntech, Hilversum, The Netherlands). The compound 1-octen-3-ol (known attractant for many flies and mosquitoes) was included in most of the synthetic mixtures, as a positive control. The results of the experiments are shown in FIGS. 1-10 and described above.

[8] = 10 μg/cm^2, DEET values are the positive control run with the chemical

| Compound | topical repellency / feeding deterrence, in words [1] | GC-EAD antennal activity [2] | % of biting (±SE) (N = 3) (Aedes aegypti [3]; 1 μg/cm^2, 3 minutes) | % of biting (±SE) (N = 3) (Aedes aegypti [3]; 5 μg/cm^2) | % of biting (±SE) (N = 3) (Aedes aegypti [3]; [8]) | % of biting (±SE) (N = 3) (Aedes aegypti [3]; 50 μg/cm^2) [a %] | % of biting (±SE) (N = 3) (Anopheles stephensi [4]; 1 μg/cm^2, 3 minutes) | % of biting (±SE) (N = 3) (Anopheles stephensi [4]; 5 μg/cm^2) [bc %] | % of biting (±SE) (N = 3) (Anopheles stephensi [4]; [8]) [ab %] | % of biting (±SE) (N = 3) (Anopheles stephensi [4]; 50 μg/cm^2) [a %] | Number of mosquitoes in each arm: Blank (Aedes aegypti [5]) | Number of mosquitoes in each arm: Bottom (Aedes aegypti [5]) | Number of mosquitoes in each arm: Repellent (Aedes aegypti [5]) | SAI (Spatial Activity Index) (Aedes aegypti [5]) | Number of mosquitoes in each arm: Repellent (Anopheles stephensi [6]) | Number of mosquitoes in each arm: Blank (Anopheles stephensi [6]) | Number of mosquitoes in each arm: Bottom (Anopheles stephensi [6]) | SAI (Spatial Activity Index) (Anopheles stephensi [6]) | SAI (Spatial Activity Index) (Phlebotomus papatasi) | Number of mosquitoes in each arm: Repellent (Phlebotomus papatasi) | further results |
| --- | --- | --- | --- | --- | --- | --- | --- | --- | --- | --- | --- | --- | --- | --- | --- | --- | --- | --- | --- | --- | --- |
| CCN(CC)C(=O)c1cccc(C)c1 [DEET, N,N-diethyl-m-toluamide, reference compound] | significantly inhibited/blocked the feeding (biting) activity | does not appear to have elicited antennal activity |  |  |  |  |  |  |  |  |  |  |  |  |  |  |  |  |  |  |  |
| C/C1=C\CCC(=O)[C@H]2CC(C)(C)[C@@H]2CC1 [β-Caryophyllene Ketone, β-caryophyllene ketone] | even stronger topical repellency |  | 20 ± 0bc % | 13 ± 7ab % | 7 ± 7ab % | 0 ± 0 | 47 ± 7cd % | 33 ± 7 | 20 ± 12 | 0 ± 0 | 37 | 20 | 28 | 0.14 | 10 | 18 | 32 | 0.29 | 0.18 | 20 | Number of mosquitoes in each arm: Blank (Phlebotomus papatasi): 29; Number of mosquitoes in each arm: Bottom (Phlebotomus papatasi): 23 |
| C=C1CC[C@H]2O[C@]2(C)CC[C@@H]2[C@@H]1CC2(C)C [β-Caryophyllene Oxide, β-Caryophyllene oxide] | even stronger topical repellency | antennally active | 27 ± 7b % | 27 ± 7b % | 0 ± 0a % | 0 ± 0 | 27 ± 13abc % | 47 ± 7 | 20 ± 12 | 0 ± 0 | 38 | 26 | 15 | 0.43 | 15 | 24 | 23 | 0.23 | 0.91 | 4 | GC-EAD antennal activity [7]: active on at least one of the insects tested; Number of mosquitoes in each arm: Blank (Phlebotomus papatasi): 83; Number of mosquitoes in each arm: Bottom (Phlebotomus papatasi): 5 |
